Measurements: publication PMC3170264 (Retrovirology, 2011)

Experiments:
HIV-2 IN Y143C = HIV-2 IN Y143C (Human immunodeficiency virus type 2 subtype B, UniProt Q89928, I1218V/I1301V/I1372V/M1455R/N1185G/N1438H/R1202K/R1392Q/T1348V/T1383A/V1460M/Y1311C); settings: Y143C in N1 background; 200 nM IN
Experimental: (§1) Mutations were introduced in the HIV-2 N1 background by mutagenesis. […] Activity is expressed as a % of control without drug. Experiments were performed two times.
(§2) The IN coding sequences from the viruses isolated from the plasma of HIV-2-infected patients N1 to N3 and T1 to T7 were amplified by PCR and sequenced according to a previously described procedure. PCR products corresponding to the entire IN sequence were amplified again with the following specific primers containing NdeI and BamH I restriction sites at their 5' ends. Primer 1: N1, N2, T1, T2, 5'-[…]-3'; N3, 5'-[…]-3'; T3-T7, 5'-[…]-3'. Primers 2: N1, 5'-[…]-3'; N2, 5'-[…]-3'; N3, 5'-[…] The amplicons were then ligated into the TA cloning plasmid pGEM-T easy (Promega, Madison, USA). Single (E92Q, T97A, G140S, Q148R, Y143C, N155H) and double (G140S/Q148R, Y143C/N155H, E92Q/Y143C and T97A/Y143C) mutations were introduced into the HIV-2 wild-type N1 sequence by mutagenesis using the QuickChange II site-directed mutagenesis kit (Agilent Technologies, Santa Clara, USA) according to the manufacturer instructions. NdeI - BamH fragments covering the IN coding sequence were then inserted into the expression vector pET-15b.
(§3) The activity of wild-type and mutated INs was determined in vitro, as previously described. Briefly, oligonucleotides (ODN) mimicking the end of the U5 long terminal repeat of the viral genome were radiolabeled with T4 polynucleotide kinase (Biolabs, Ipswich, USA) and [γ-^32P] ATP (3,000 Ci/mmol) (Amersham, GE Healthcare, USA), then purified on a Sephadex G-10 column (GE Healthcare, USA). Double-stranded ODNs were obtained by mixing equimolar amounts of complementary strands in the presence of 100 mM NaCl.

HIV-2 IN N155H = HIV-2 IN N155H (Human immunodeficiency virus type 2 subtype B, UniProt Q89928, I1218V/I1301V/I1372V/M1455R/N1185G/N1323H/N1438H/R1202K/R1392Q/T1348V/T1383A/V1460M); settings: N155H in N1 background; 200 nM IN
Experimental: as §1, §2, §3

HIV-2 IN T97A/Y143C = HIV-2 IN T97A/Y143C (Human immunodeficiency virus type 2 subtype B, UniProt Q89928, I1218V/I1301V/I1372V/M1455R/N1185G/N1438H/R1202K/R1392Q/T1265A/T1348V/T1383A/V1460M/Y1311C); settings: T97A/Y143C in N1 background; 200 nM IN
Experimental: as §1, §2, §3

With `Cc1nnc(C(=O)NC(C)(C)c2nc(C(=O)NCc3ccc(F)cc3)c(O)c(=O)n2C)o1` [RAL, raltegravir] the “resistance to RAL, strand transfer” value (HIV-2 IN Y143C) was “did not lead to significant resistance”, the “resistance to RAL, strand transfer” value (HIV-2 IN N155H) was “high level of resistance” and the “resistance to RAL, strand transfer” value (HIV-2 IN T97A/Y143C) was “did not lead to detectable IN resistance”.
